Consider seven compounds from paper PMC10490226, “Synthesis, Characterization, and Anticancer Activity of New N,N′-Diarylthiourea Derivative against Breast Cancer Cells” (Molecules, 2023).

Series [1] has as its system MCF-7 cells. The series can be described thus: MTT cytotoxicity test on MCF-7 cells. Particulars: Homo sapiens; for IC50: MCF7, 24 h, MTT, 24 h incubation, doses 50 to 1000 µM, mean of three, read-out: IC50 concentration, 50% inhibition of MCF-7 cell viability; for viability at 50 µM / viability at 100 µM / viability at 150 µM / viability at 300 µM / viability at 600 µM / viability at 1000 µM: MCF7, 24 h, read-out: Cell Viability %; for viability at 50 µM: MCF-7, dose 50 µM; for viability at 100 µM: MCF-7, dose 100 µM; for viability at 150 µM: MCF-7, dose 150 µM; for viability at 300 µM: MCF-7, dose 300 µM; for viability at 600 µM: MCF-7, dose 600 µM; for viability at 1000 µM: MCF-7, dose 1000 µM. The class given is cell-based. How it is done: (§1) The human cells that were utilized in the study included breast cancer cells, specifically the MCF-7 cell lines, along with normal lung cells, specifically the WI38 cell lines. These cell lines were taken from the American Type Culture Collection (ATCC). These cells were maintained in RPMI media with penicillin (100 U/mL), glutamine, 10% fetal bovine serum, and streptomycin ([…]) in a humidified incubator (5% CO2, 37 °C).
As indicated before, the prepared compounds (1–6) were tested for their capacity to inhibit the growth of MCF-7 cancer cells, employing the MTT experiment. In short, 1 × 10^5 of MCF-7 cells/mL were seeded into each well of a 96-well plate and cultured in the growth mixture at 37 °C overnight. The MCF-7 cells were then exposed to the test compounds at 37 °C for 24 h at doses that ranged from 50 to 1000 µM.
The cells were then observed under an inverted microscope (Leica DMI3000B, Mannheim, Germany) for toxicity markers in both the control and treated cells. Following this, the cells were subjected to MTT solution, which caused MTT to be converted into formazan (MTT’s metabolic product), the amount of which was directly proportionate to the total number of viable cells. The formazan crystal was then extracted from the cells by treating them with dimethyl sulfoxide. Microplate reader (Bio-Rad, Hercules, CA, USA) readings were taken at 570 nm, and the percentage of live MCF-7 cells was calculated using the following Formula (1) to indicate the influence of the studied compounds on the proliferation of the tested cells. Cell viability % = (Abs. of tested compound − Abs. of blank)/(Abs. of control − Abs. of blank) × 100 (1)
(§2) The half-suppressing dose (IC50) of the tested compounds was estimated via a dose-response curve following incubation for 24 h. To further determine whether the compounds were safe for use on living tissues, the MTT technique was used at concentrations ranging from 50 to 1000 µM to analyze the influence of the compounds on the viability of healthy WI38 cells. Results are presented as the mean of three independent evaluations of each value.

In the next series the test system is breast cancer cells. More on the design: method as in doi:10.31788/RJC.2022.1536976. Particulars: read-out: IC50 concentration against the viability of breast cancer cells; cited from earlier work.
Series [2] has as its system cleaved caspase-3 (activated caspase-3). The series can be described thus: ELISA quantification of active (cleaved) caspase-3 in MCF-7 cells. The class given is cell-based, human. The following applies: MCF-7, IC50 dose (338.33 µM), p < 0.001, result in words. Here is the method: The expression levels of the human active caspase-3 protein when cleaved at Asp175/Ser176 were measured in compound 4-treated MCF-7 cells, using an ELISA method (Invitrogen, Waltham, MA, USA, Catalog # KHO1091). In a nutshell, after incubating the tested compound 4 with MCF-7 cell cultures for 2 h, the supernatant (100 μL) was plated into a 96-well ELISA plate, and the resulting pellets were discarded. Each well was then suspended with 100 μL of a caspase-3 (active) antibody detection solution and left to incubate at room temperature for 1 h. The solution was then decanted from the wells and rinsed four times. Furthermore, HRP-Anti-Rabbit Antibody solution (100 µL) was added to each well, and the plate was incubated for 30 min at room temperature. A stabilized chromogen substrate (100 µL) was transferred to each well, and the plate was allowed to incubate for 30 min at room temperature, in darkness. At 450 nm, optical density readings were taken from the tested plate after adding 100 µL of stop solution to each well. Utilizing a standard curve, the quantity of active caspase-3 protein in the treated MCF-7 cells was calculated.
(In general: ELISA stands for enzyme-linked immunosorbent assay.)

Another series has as its system wi38 cells. The series can be described thus: MTT viability test on normal WI38 lung cells. It is filed as cell-based, human. Here is the method:
as §1, §2
(In general: Formazan colour is commonly taken as a measure of viable cells.)

The subject of series [3] is MCF-7 cells. The series can be described thus: DNA fragmentation analysis by comet assay. It is filed as cell-based, human. Here is the method: Prior to subjecting the MCF-7 cells to compound 4, they were exposed to a caspase-3 inhibitor (Z-DEVD-FMK) in order to assess the potential involvement of caspase-3 activity in the DNA damage induced by compound 4. The occurrence of DNA damage was assessed in MCF-7 cells treated with compound 4 only (IC50 concentration) and MCF-7 cells that were pretreated with Z-DEVD-FMK (50 μM) for 1 h and then treated with compound 4 (IC50 concentration) for 24 h, utilizing the comet test. Fragmentation causes the broken DNA to be separated from the healthy cellular DNA, generating a comet tail that can be identified under a fluorescence microscope. Comet parameters were calculated using TriTek Comet Score™ software (TriTek Corp., Herndon, VA, USA), following a computerized image analysis system that recorded 100 photographs of randomly shaped comets for each slide. The tail moment and tail DNA, two often-employed markers, were combined for data finding. The Olive tail moment (OTM) has been honed to be the most precise method for assessing DNA damage. In accordance with the following Equation (2), its value can be determined by the tail’s DNA concentration and DNA mobility. OTM = quantity of tail moment × quantity of tail DNA/100(2)

In series [4] the test system is MCF-7 cells. The series can be described thus: Lactate dehydrogenase (LDH) leakage test (ELISA). The class given is cell-based, human. Particulars: untreated control 85.35 ± 4.2 U/L, p < 0.001. Here is the method: The levels of the released lactate dehydrogenase enzyme (LDH) in compound 4-treated MCF-7 cells were detected using the double-antibody sandwich ELISA technique (SunRed, Cat. N. 201-28-0094) to further estimate the cytotoxic impact of the tested compound 4 against MCF-7 cells. In brief, the compound 4-treated MCF-7 cancer cells were centrifuged, and 40 µL of the resulted supernatant was added to the tested wells. Following this, LDH-antibody (10 µL) and Streptavidin-HRP (50 µL) were transferred to each well for analysis. Subsequently, the 96-well plate was gently shaken, and incubated for 60 min at 37 °C. Following washing, chromogen solution A (50 µL) and chromogen solution B (50 µL) were transferred to each of the test wells, and the plates were left to incubate at 37 Celsius, out of the light, for 10 min. Next, each well was treated with stop solution (50 µL). Finally, the optical density, OD, for the tested plate was measured at 450 nm. Using the prepared standard curve, the concentration of the released LDH was estimated.

[5] abbreviates: IC50 concentration 24 h, with caspase-3 inhibitor Z-DEVD-FMK (50 μM, 1 h) pretreatment.

In general, viability refers to the share of living cells, or the viability signal relative to a control.

Regarding `CCCCCCCCOc1ccc(NC(=O)Nc2ccccc2)cc1` [Compound 2, 1-(4-(octyloxy)phenyl)-3-phenylurea], in the series on MCF-7 cells [1], the IC50 worked out at 527.2 ± 1.28 µM, the viability at 50 µM was determined as 98.8 ± 2.26%, the viability at 100 µM turned out to be 88.6 ± 2.22% and the viability at 150 µM was 72.2 ± 2.13%. Besides, in the series with MCF-7 cells [1], the viability at 300 µM is 49.9 ± 1.77%, the viability at 600 µM was found to be 38.3 ± 1.97% and the viability at 1000 µM was found to be 23.3 ± 2.33%.
Regarding `C=CCNC(=S)NC(=O)c1ccc([N+](=O)[O-])cc1` [4-nitrobenzoyl-3-allylthiourea], the IC50 in the series with breast cancer cells is 225 µM.
On to `CCCCCCOc1ccc(NC(=O)Nc2ccccc2)cc1` [Compound 1, 1-(4-(hexyloxy)phenyl)-3-phenylurea], for which, in the series with MCF-7 cells [1], the IC50 was found to be 726.6 ± 1.29 µM, the viability at 50 µM is 98.6 ± 2.21%, the viability at 100 µM amounted to 87.3 ± 1.34% and the viability at 150 µM was 80.6 ± 2.76%. In addition, in the series on MCF-7 cells [1], the viability at 300 µM is 67.2 ± 1.13%, the viability at 600 µM worked out at 57.2 ± 2.44% and the viability at 1000 µM turned out to be 36.4 ± 1.34%.
With `CCCCCCCCCCCCCCCCOc1ccc(NC(=S)Nc2ccc(F)cc2)cc1` [Compound 6, 1-(4-fluorophenyl)-3-(4-(hexadecyloxy)phenyl)thiourea], in the series on MCF-7 cells [1], the IC50 turned out to be 711.9 ± 2.5 µM, the viability at 50 µM turned out to be 96.4 ± 2.63%, the viability at 100 µM stood at 91.7 ± 2.47% and the viability at 150 µM was determined as 84.1 ± 1.83%. Moreover, in the series with MCF-7 cells [1], the viability at 300 µM was determined as 79.2 ± 2.64%, the viability at 600 µM was determined as 46.9 ± 2.34% and the viability at 1000 µM stood at 36.7 ± 1.66%.
In the case of `CCCCCCCCCCCCCCCCOc1ccc(NC(=O)Nc2ccccc2)cc1` [Compound 3, 1-(4-(hexadecyloxy)phenyl)-3-phenylurea], in the series on MCF-7 cells [1], the IC50 came out at 619.7 ± 4.33 µM, the viability at 50 µM turned out to be 97.3 ± 2.45%, the viability at 100 µM came out at 93.6 ± 1.82% and the viability at 150 µM was determined as 80.7 ± 2.44%. Also, in the series on MCF-7 cells [1], the viability at 300 µM turned out to be 64.9 ± 1.66%, the viability at 600 µM worked out at 56.7 ± 2.55% and the viability at 1000 µM worked out at 20.9 ± 2.75%.
As to `CCCCCCCCOc1ccc(NC(=S)Nc2ccc(F)cc2)cc1` [Compound 5, 1-(4-fluorophenyl)-3-(4-(octyloxy)phenyl)thiourea], in the series on MCF-7 cells [1], the IC50 was 567.8 ± 4.28 µM, the viability at 50 µM worked out at 98.6 ± 2.53%, the viability at 100 µM was determined as 96.5 ± 2.33% and the viability at 150 µM was determined as 79.5 ± 1.92%. In the series on MCF-7 cells [1], the viability at 300 µM was 62 ± 1.84%, the viability at 600 µM came out at 45.4 ± 2.74% and the viability at 1000 µM was 18 ± 1.45%.
Consider `CCCCCCOc1ccc(NC(=S)Nc2ccc(F)cc2)cc1` [Compound 4, 1-(4-fluorophenyl)-3-(4-(hexyloxy)phenyl)thiourea], for which, in the series with MCF-7 cells [1], the IC50 was determined as 338.3 ± 1.52 µM, the viability at 50 µM was 100 ± 2.24%, the viability at 100 µM was determined as 90.2 ± 2.78% and the viability at 150 µM came out at 48.1 ± 1.15%. For the same compound, in the series on MCF-7 cells [1], the viability at 300 µM came to 21.2 ± 1.66%, the viability at 600 µM turned out to be 18.3 ± 1.92% and the viability at 1000 µM was determined as 7.28 ± 2.56%. Moreover, in series [2], the “Cleaved caspase-3 (activated caspase-3) levels versus untreated cells” value is “significantly elevated”. The same compound showed an IC50 with wi38 cells (Homo sapiens, WI-38, doses 50 to 1000 µM) of 1463 ± 4.78 µM. For the same compound, the “Cytotoxic effects on normal human lung cells (wi38 cells)” value in the series on wi38 cells (result in words) was “no cytotoxic effects”. In the series on MCF-7 cells [3] (setting [5]), the “% DNA in Tail” value came to 14.37 ± 1.33 %, the “Olive Tail Moment (OTM)” value was determined as 1.87 ± 0.34, the “Tail Length (PX)” value was 7.13 ± 2.21 PX and the “Tail Moment” value stood at 1.04 ± 0.04. Also, in the series on MCF-7 cells [3] (IC50 concentration, without caspase-3 inhibitor pretreatment, control 0.22 ± 0.02), the “Tail Moment” value came out at 1.72 ± 0.05. Moreover, the “Olive Tail Moment (OTM)” value in the series with MCF-7 cells [3] (IC50 concentration, without caspase-3 inhibitor pretreatment, control 0.55 ± 0.02) turned out to be 2.38 ± 0.06. For the same compound, in the series with MCF-7 cells [3] (IC50 concentration, without caspase-3 inhibitor pretreatment, control 3.11 ± 1.73), the “% DNA in Tail” value is 17.26 ± 2.34 %. For the same compound, the “Tail Length (PX)” value in the series on MCF-7 cells [3] (IC50 concentration, without caspase-3 inhibitor pretreatment, control 7.52 ± 1.82) was determined as 6.67 ± 1.94 PX. Besides, the “LDH levels in treated MCF-7 cells” value in the series with MCF-7 cells [4] is on record as 521.77 ± 30.8 U/L.
